Molecular target: T1, human S1P1 receptors (Homo sapiens, UniProt P21453)
T1 construct: host or cells: HEK293
Assay: S1P1R antagonist assay (fluorescent membrane potential dye, cAMP readout)
Type: cell-based
Conditions: HEK293 cells expressing human S1P1 receptors and CNG channel; 500 nM NECA; S1P1R agonist 10 nM; 90 minutes; read-out: EC50 or IC50 value

T1 sequence (P21453 whole entry): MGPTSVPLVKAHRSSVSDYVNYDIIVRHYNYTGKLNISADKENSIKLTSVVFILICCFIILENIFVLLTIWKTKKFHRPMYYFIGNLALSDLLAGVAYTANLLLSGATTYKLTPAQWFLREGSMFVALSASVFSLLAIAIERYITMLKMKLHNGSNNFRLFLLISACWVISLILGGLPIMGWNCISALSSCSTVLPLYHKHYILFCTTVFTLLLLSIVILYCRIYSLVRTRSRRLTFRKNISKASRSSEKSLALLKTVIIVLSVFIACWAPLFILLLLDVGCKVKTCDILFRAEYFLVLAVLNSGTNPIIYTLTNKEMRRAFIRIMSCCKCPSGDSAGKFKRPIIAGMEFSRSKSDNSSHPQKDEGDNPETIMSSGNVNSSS

Structure (SMILES)	IC50 [nM]
O=C(CCCC(=O)c1cccs1)NC(COCc1ccccc1)C(=O)Nc1ccc(Oc2ccccc2)cc1 (centres unmarked) [Compound 323, 5-oxo-N-(2-oxo-1-{[(phenylmethyl)oxy]methyl}-2-{[4-(phenyloxy)phenyl]amino}ethyl)-5-(2-thienyl)pentanamide]	300 to 1000
O=C(NC(COCc1ccccc1)C(=O)Nc1ccc(Oc2ccccc2)cc1)C(=O)c1ccccc1 (centres unmarked) [Compound 324, N-(2-oxo-1-{[(phenylmethyl)oxy]methyl}-2-{[4-(phenyloxy)phenyl]amino}ethyl)-2-oxo-2-phenylacetamide]	> 1000
O=C(CCCc1cccs1)NC(COCc1ccccc1)C(=O)Nc1ccc(Oc2ccccc2)cc1 (centres unmarked) [Compound 325, N-(2-oxo-1-{[(phenylmethyl)oxy]methyl}-2-{[4-(phenyloxy)phenyl]amino}ethyl)-4-(2-thienyl)butanamide]	300 to 1000
O=C(NC(COCc1ccccc1)C(=O)Nc1ccc(Oc2ccccc2)cc1)c1ccc([N+](=O)[O-])o1 (centres unmarked) [Compound 326, 5-nitro-N-(2-oxo-1-{[(phenylmethyl)oxy]methyl}-2-{[4-(phenyloxy)phenyl]amino}ethyl)furan-2-carboxamide]	≤ 300
CC/C=C/CC(=O)NC(COCc1ccccc1)C(=O)Nc1ccc(Oc2ccccc2)cc1 (centres unmarked) [Compound 327]	300 to 1000
O=C(Cc1ccc2c(c1)OCO2)NC(COCc1ccccc1)C(=O)Nc1ccc(Oc2ccccc2)cc1 (centres unmarked) [Compound 328, N-(2-oxo-1-{[(phenylmethyl)oxy]methyl}-2-{[4-(phenyloxy)phenyl]amino}ethyl)-1,3-benzodioxol-5-ylacetamide]	> 1000
O=C(Nc1ccc(Oc2ccccc2)cc1)C(COCc1ccccc1)NC(=O)C1(c2c(F)cccc2Cl)CCCC1 (centres unmarked) [Compound 329, 1-(2-chloro-6-fluorophenyl)-N-(2-oxo-1-{[(phenylmethyl)oxy]methyl}-2-{[4-(phenyloxy)phenyl]amino}ethyl)cyclopentanecarboxamide]	> 1000
O=C(NC(COCc1ccccc1)C(=O)Nc1ccc(Oc2ccccc2)cc1)c1ccc(F)cc1C(F)(F)F (centres unmarked) [Compound 330, 4-fluoro-N-(2-oxo-1-{[(phenylmethyl)oxy]methyl}-2-{[4-(phenyloxy)phenyl]amino}ethyl)-2-(trifluoromethyl)benzamide]	> 1000
O=C(CSc1ncccn1)NC(COCc1ccccc1)C(=O)Nc1ccc(Oc2ccccc2)cc1 (centres unmarked) [Compound 331, N-(2-oxo-1-{[(phenylmethyl)oxy]methyl}-2-{[4-(phenyloxy)phenyl]amino}ethyl)-2-(pyrimidin-2-ylthio)acetamide]	> 1000
COc1ccc(OC)c(C(=O)NC(COCc2ccccc2)C(=O)Nc2ccc(Oc3ccccc3)cc2)c1 (centres unmarked) [Compound 332, 2,5-bis(methyloxy)-N-(2-oxo-1-{[(phenylmethyl)oxy]methyl}-2-{[4-(phenyloxy)phenyl]amino}ethyl)benzamide]	300 to 1000
CS(=O)(=O)c1ccc(C(=O)NC(COCc2ccccc2)C(=O)Nc2ccc(Oc3ccccc3)cc2)cc1 (centres unmarked) [Compound 333, 4-(methylsulfonyl)-N-(2-oxo-1-{[(phenylmethyl)oxy]methyl}-2-{[4-(phenyloxy)phenyl]amino}ethyl)benzamide]	> 1000
CS(=O)(=O)c1ccc(C(=O)NC(COCc2ccccc2)C(=O)Nc2ccc(Oc3ccccc3)cc2)c(Cl)c1 (centres unmarked) [Compound 334, 2-chloro-4-(methylsulfonyl)-N-(2-oxo-1-{[(phenylmethyl)oxy]methyl}-2-{[4-(phenyloxy)phenyl]amino}ethyl)benzamide]	> 1000
O=C(CN1C(=O)CSC1=S)NC(COCc1ccccc1)C(=O)Nc1ccc(Oc2ccccc2)cc1 (centres unmarked) [Compound 335, N-(2-oxo-1-{[(phenylmethyl)oxy]methyl}-2-{[4-(phenyloxy)phenyl]amino}ethyl)-2-(4-oxo-2-thioxothiazolidin-3-yl)acetamide]	> 1000
O=C(NC(COCc1ccccc1)C(=O)Nc1ccc(Oc2ccccc2)cc1)C1CCOC1 (centres unmarked) [Compound 336, N-(2-oxo-1-{[(phenylmethyl)oxy]methyl}-2-{[4-(phenyloxy)phenyl]amino}ethyl)tetrahydrofuran-3-carboxamide]	≤ 300
COCCC(=O)NC(COCc1ccccc1)C(=O)Nc1ccc(Oc2ccccc2)cc1 (centres unmarked) [Compound 337, N-(2-oxo-1-{[(phenylmethyl)oxy]methyl}-2-{[4-(phenyloxy)phenyl]amino}ethyl)-3-methoxypropanamide]	> 1000
CCOCC(=O)NC(COCc1ccccc1)C(=O)Nc1ccc(Oc2ccccc2)cc1 (centres unmarked) [Compound 338, N-(2-oxo-1-{[(phenylmethyl)oxy]methyl}-2-{[4-(phenyloxy)phenyl]amino}ethyl)-2-ethoxyacetamide]	> 1000
CN(C)C(=O)CCC(=O)NC(COCc1ccccc1)C(=O)Nc1ccc(Oc2ccccc2)cc1 (centres unmarked) [Compound 339, N,N-dimethyl-N′-(2-oxo-1-{[(phenylmethyl)oxy]methyl}-2-{[4-(phenyloxy)phenyl]amino}ethyl)butanediamide]	> 1000
CN(CC(=O)NC(COCc1ccccc1)C(=O)Nc1ccc(Oc2ccccc2)cc1)C(=O)c1ccccc1 (centres unmarked) [Compound 340, N-(2-oxo-1-{[(phenylmethyl)oxy]methyl}-2-{[4-(phenyloxy)phenyl]amino}ethyl)-N-benzoyl-N-methylaminoacetamide]	300 to 1000

Structure (SMILES)	IC50 [nM]
O=C(NC(COCc1ccccc1)C(=O)Nc1ccc(Oc2ccccc2)cc1)c1c[nH]c2ccccc12 (centres unmarked) [Compound 341, N-(2-oxo-1-{[(phenylmethyl)oxy]methyl}-2-{[4-(phenyloxy)phenyl]amino}ethyl)-1H-indole-3-carboxamide]	> 1000
O=C(NC(COCc1ccccc1)C(=O)Nc1ccc(Oc2ccccc2)cc1)c1ccc2[nH]cnc2c1 (centres unmarked) [Compound 342, N-(2-oxo-1-{[(phenylmethyl)oxy]methyl}-2-{[4-(phenyloxy)phenyl]amino}ethyl)-1H-benzimidazole-5-carboxamide]	> 1000
CCOc1ccc(CC(=O)NC(COCc2ccccc2)C(=O)Nc2ccc(Oc3ccccc3)cc2)cc1 (centres unmarked) [Compound 343, N-(2-oxo-1-{[(phenylmethyl)oxy]methyl}-2-{[4-(phenyloxy)phenyl]amino}ethyl)-2-(4-ethoxyphenyl)acetamide]	> 1000
C#CCCC(=O)NC(COCc1ccccc1)C(=O)Nc1ccc(Oc2ccccc2)cc1 (centres unmarked) [Compound 344, N-(2-oxo-1-{[(phenylmethyl)oxy]methyl}-2-{[4-(phenyloxy)phenyl]amino}ethyl)pent-4-ynamide]	> 1000
CCCOc1ccc(C(=O)NC(COCc2ccccc2)C(=O)Nc2ccc(Oc3ccccc3)cc2)cc1 (centres unmarked) [Compound 345, N-(2-oxo-1-{[(phenylmethyl)oxy]methyl}-2-{[4-(phenyloxy)phenyl]amino}ethyl)-4-(propyloxy)benzamide]	> 1000
CCCCC(C)C(=O)NC(COCc1ccccc1)C(=O)Nc1ccc(Oc2ccccc2)cc1 (centres unmarked) [Compound 346, 2-methyl-N-(2-oxo-1-{[(phenylmethyl)oxy]methyl}-2-{[4-(phenyloxy)phenyl]amino}ethyl)hexanamide]	300 to 1000
CC(=O)CCC(=O)NC(COCc1ccccc1)C(=O)Nc1ccc(Oc2ccccc2)cc1 (centres unmarked) [Compound 347, 4-oxo-N-(2-oxo-1-{[(phenylmethyl)oxy]methyl}-2-{[4-(phenyloxy)phenyl]amino}ethyl)pentanamide]	> 1000
COc1ccc(CCC(=O)NC(COCc2ccccc2)C(=O)Nc2ccc(Oc3ccccc3)cc2)cc1OC (centres unmarked) [Compound 348, N-(2-oxo-1-{[(phenylmethyl)oxy]methyl}-2-{[4-(phenyloxy)phenyl]amino}ethyl)-3-(3,4-dimethoxyphenyl)propanamide]	300 to 1000
O=C(CCC(=O)c1ccccc1)NC(COCc1ccccc1)C(=O)Nc1ccc(Oc2ccccc2)cc1 (centres unmarked) [Compound 349, 4-oxo-N-(2-oxo-1-{[(phenylmethyl)oxy]methyl}-2-{[4-(phenyloxy)phenyl]amino}ethyl)-4-phenylbutanamide]	300 to 1000
O=C(NC(COCc1ccccc1)C(=O)Nc1ccc(Oc2ccccc2)cc1)c1cnc2ccccc2c1 (centres unmarked) [Compound 350, N-(2-oxo-1-{[(phenylmethyl)oxy]methyl}-2-{[4-(phenyloxy)phenyl]amino}ethyl)quinoline-3-carboxamide]	> 1000
O=C(NC(COCc1ccccc1)C(=O)Nc1ccc(Oc2ccccc2)cc1)c1cnccn1 (centres unmarked) [Compound 351, N-(2-oxo-1-{[(phenylmethyl)oxy]methyl}-2-{[4-(phenyloxy)phenyl]amino}ethyl)pyrazine-2-carboxamide]	> 1000
COc1ccc2[nH]c(C)c(CC(=O)NC(COCc3ccccc3)C(=O)Nc3ccc(Oc4ccccc4)cc3)c2c1 (centres unmarked) [Compound 352, N-(2-oxo-1-{[(phenylmethyl)oxy]methyl}-2-{[4-(phenyloxy)phenyl]amino}ethyl)-2-(5-methoxy-2-methyl-1H-indol-3-yl)acetamide]	> 1000
COC(C(=O)NC(COCc1ccccc1)C(=O)Nc1ccc(Oc2ccccc2)cc1)c1ccccc1 (centres unmarked) [Compound 353, N-(2-oxo-1-{[(phenylmethyl)oxy]methyl}-2-{[4-(phenyloxy)phenyl]amino}ethyl)-2-methoxy-2-phenylacetamide]	> 1000
C[C@@H](C(=O)NC(COCc1ccccc1)C(=O)Nc1ccc(Oc2ccccc2)cc1)c1ccccc1 (stereo partly drawn) [Compound 354, N-(2-oxo-1-{[(phenylmethyl)oxy]methyl}-2-{[4-(phenyloxy)phenyl]amino}ethyl)-2R-phenylpropanamide]	300 to 1000
O=C(NC(COCc1ccccc1)C(=O)Nc1ccc(Oc2ccccc2)cc1)c1cn[nH]c1 (centres unmarked) [Compound 355, N-(2-oxo-1-{[(phenylmethyl)oxy]methyl}-2-{[4-(phenyloxy)phenyl]amino}ethyl)-1H-pyrazole-4-carboxamide]	300 to 1000
O=C(NC(COCc1ccccc1)C(=O)Nc1ccc(Oc2ccccc2)cc1)c1cnnc2ccccc12 (centres unmarked) [Compound 356, N-(2-oxo-1-{[(phenylmethyl)oxy]methyl}-2-{[4-(phenyloxy)phenyl]amino}ethyl)cinnoline-4-carboxamide]	300 to 1000
O=C(NC(COCc1ccccc1)C(=O)Nc1ccc(Oc2ccccc2)cc1)c1cccc2cccnc12 (centres unmarked) [Compound 357, N-(2-oxo-1-{[(phenylmethyl)oxy]methyl}-2-{[4-(phenyloxy)phenyl]amino}ethyl)quinoline-8-carboxamide]	300 to 1000

Reference: patent US8791102B2, “Acetanilide sphingosine-1-phosphate receptor antagonists” (Exelixis, Inc., priority 2008, dated 2014)
